Tests used:
TLR7/8 = assay: TLR7/8-mediated IL-6 expression in THP-1 cells; type: cell-based, human; conditions: FIG. 4C
Description: RAW264.7 cells (ATCC, Manassas, Va., USA), which are mouse macrophages, were cultured in low-glucose DMEM (Thermo Fisher Scientific Inc.) supplemented with 10% FBS, 100 IU/ml penicillin and 100 μg/ml streptomycin in a culture system. Human monocyte THP1 cells were cultured in RPMI 1640 (Thermo Fisher Scientific Inc.) supplemented with 10% FBS, 100 IU/ml penicillin and 100 μg/ml streptomycin and then differentiation thereof into macrophages was induced using 10 nM phorbol 12-myristate 13-acetate (PMA) (Sigma-Aldrich Co. LLC.) for 24 hours. CL075, R848, CpG-ODN and Poly(I:C) were purchased from InvivoGen (San Diego, Calif., USA), and LPS was purchased from Sigma-Aldrich Co. (St. Louis, Mo., USA).
Cytotoxicity in RAW 264.7 cells was tested by treatment with these compounds at a concentration of 12.5 to 50 μM. […] The inhibitory effect of TAC5-a on TLR-mediated signaling was confirmed by measuring TNF-α secretion through ELISA in THP1-derived macrophages. […] In addition, in order to evaluate the antagonistic effect of TAC5-a on endosomal TLR activation, cells were cultured along with this compound in the presence of R848 (TLR7/8) or CL075 (TLR7/8), imiquimod (IMQ; TLR7), TL8 (TLR8), poly(I:C) (TLR3) or CpG ODN (TLR9) (FIGS. 4E, 4F and 4G).

TLR7 = biological target: T1, TLR7 (Homo sapiens, UniProt Q9NYK1); assay: IMQ, R848 or CL075-induced TNF-α or IL-6 secretion in THP1-derived macrophages; type: cell-based; conditions: R848 or CL075, dose-dependent manner, FIGS. 4E-4G
T1 construct: endogenous in cells; host or cells: THP1-derived macrophages (PMA-differentiated)
T1 sequence (Q9NYK1 27-1049): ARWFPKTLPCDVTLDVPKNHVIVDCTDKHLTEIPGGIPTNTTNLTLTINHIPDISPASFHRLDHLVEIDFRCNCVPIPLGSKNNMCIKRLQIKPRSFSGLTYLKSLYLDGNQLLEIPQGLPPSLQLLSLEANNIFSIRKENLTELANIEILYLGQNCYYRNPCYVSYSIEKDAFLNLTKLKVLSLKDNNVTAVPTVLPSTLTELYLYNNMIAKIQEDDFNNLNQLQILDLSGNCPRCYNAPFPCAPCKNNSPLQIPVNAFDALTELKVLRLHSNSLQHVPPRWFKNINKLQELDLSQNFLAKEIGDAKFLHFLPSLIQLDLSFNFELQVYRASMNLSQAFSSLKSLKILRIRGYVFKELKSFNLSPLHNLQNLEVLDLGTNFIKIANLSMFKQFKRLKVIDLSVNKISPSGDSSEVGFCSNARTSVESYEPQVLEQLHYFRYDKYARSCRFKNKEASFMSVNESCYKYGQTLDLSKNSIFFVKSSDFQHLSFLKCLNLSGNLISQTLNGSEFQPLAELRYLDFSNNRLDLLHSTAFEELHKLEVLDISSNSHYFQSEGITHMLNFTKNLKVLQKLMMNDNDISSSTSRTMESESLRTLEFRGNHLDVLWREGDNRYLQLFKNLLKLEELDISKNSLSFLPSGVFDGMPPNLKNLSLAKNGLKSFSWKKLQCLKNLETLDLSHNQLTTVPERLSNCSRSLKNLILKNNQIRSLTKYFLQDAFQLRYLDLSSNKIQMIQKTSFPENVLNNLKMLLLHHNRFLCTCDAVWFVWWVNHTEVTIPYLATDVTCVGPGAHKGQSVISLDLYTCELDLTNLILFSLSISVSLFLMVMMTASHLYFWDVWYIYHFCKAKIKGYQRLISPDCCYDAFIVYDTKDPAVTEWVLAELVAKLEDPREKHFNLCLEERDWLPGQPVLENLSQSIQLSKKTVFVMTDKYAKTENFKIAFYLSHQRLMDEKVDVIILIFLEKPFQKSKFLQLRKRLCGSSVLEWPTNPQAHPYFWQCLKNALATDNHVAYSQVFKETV

TLR9 = biological target: T2, TLR9 (Homo sapiens, UniProt Q9NR96); assay: CpG ODN-induced TNF-α or IL-6 secretion in THP1-derived macrophages; type: cell-based; conditions: dose-dependent manner, FIGS. 4E-4G
T2 construct: endogenous in cells; host or cells: THP1-derived macrophages (PMA-differentiated)
T2 sequence (Q9NR96 26-1032): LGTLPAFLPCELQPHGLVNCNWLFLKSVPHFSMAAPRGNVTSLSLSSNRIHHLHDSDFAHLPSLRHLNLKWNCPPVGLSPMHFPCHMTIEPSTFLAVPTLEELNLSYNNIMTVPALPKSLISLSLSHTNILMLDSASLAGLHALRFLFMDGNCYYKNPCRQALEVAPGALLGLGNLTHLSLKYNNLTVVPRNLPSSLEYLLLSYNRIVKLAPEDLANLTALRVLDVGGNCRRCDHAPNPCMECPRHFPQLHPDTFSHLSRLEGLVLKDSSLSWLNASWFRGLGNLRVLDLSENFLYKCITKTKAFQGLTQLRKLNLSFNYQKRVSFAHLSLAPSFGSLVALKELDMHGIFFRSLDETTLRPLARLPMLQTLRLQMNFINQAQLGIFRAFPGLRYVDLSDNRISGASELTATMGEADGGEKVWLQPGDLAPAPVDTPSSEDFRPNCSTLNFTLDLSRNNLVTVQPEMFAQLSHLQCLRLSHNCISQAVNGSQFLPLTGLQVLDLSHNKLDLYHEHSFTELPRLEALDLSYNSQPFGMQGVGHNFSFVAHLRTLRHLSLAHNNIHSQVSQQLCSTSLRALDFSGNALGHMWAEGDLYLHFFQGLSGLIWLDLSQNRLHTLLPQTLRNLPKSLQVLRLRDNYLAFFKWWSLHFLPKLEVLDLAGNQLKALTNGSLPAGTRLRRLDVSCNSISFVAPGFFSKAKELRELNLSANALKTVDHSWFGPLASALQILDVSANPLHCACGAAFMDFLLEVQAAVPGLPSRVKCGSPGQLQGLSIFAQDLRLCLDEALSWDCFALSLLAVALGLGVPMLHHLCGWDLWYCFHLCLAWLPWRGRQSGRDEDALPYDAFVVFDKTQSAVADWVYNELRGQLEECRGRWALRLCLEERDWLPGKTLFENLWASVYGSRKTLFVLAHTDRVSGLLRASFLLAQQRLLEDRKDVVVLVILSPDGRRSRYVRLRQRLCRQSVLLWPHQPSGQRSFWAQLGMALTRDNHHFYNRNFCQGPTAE

[1] = test system: C57BL/6 mice, IMQ-induced psoriasis; assay: IMQ-induced psoriasis mouse model; type: in vivo
Description: The therapeutic efficacy of TAC5-a was evaluated in a psoriasis mouse model and a SLE mouse model. Psoriasis was induced in 6-7 week old C57BL/6 mice by topically applying 42 mg of IMQ cream (5%) to the shaved back skin of the mice for 6 consecutive days (FIG. 5A). TAC5-a was injected daily at doses of 50, 100 and 200 nmol/g and the effect thereof on severity was analyzed.
Histological analysis and immunochemical staining were performed on skin samples of mouse dorsal lesions. The sample was fixed with 4% paraformaldehyde solution, then embedded in paraffin and cut to 7 μm on a glass slide. The sections were stained with hematoxylin and eosin (H&E) and the thickness of the dermis and epidermis were measured. The thickness of skin was measured with a Leica DMi8 fluorescence microscope using a Leica LAS X Hardware Configurator (Leica Microsystems GmbH, Wetzlar, Germany). IMQ-mediated skin inflammation was evaluated by immunohistochemistry (IHC) using a primary antibody that recognizes CD68 (ab31630, 1:200 dilution) as a macrophage marker. […] The skin was stained with hematoxylin and eosin (H&E) in order to evaluate the thickness of the epidermis (yellow arrow) and dermis (green arrow) in IMQ-induced psoriasis mice and thereby to observe the histopathological changes of skin lesions in each group (FIG. 5G) Immunohistochemical analysis of skin lesions in each group was performed using a primary antibody that recognizes CD68.

In the case of Nc1cccc(COc2cccnc2N)c1 [TAC5-a, 3-((3-aminobenzyl)oxy)pyridin-2-amine], the “TLR7/8-mediated IL-6 expression” value (TLR7/8) is reported as “inhibited”, the “TLR7-mediated TNF-α or IL-6 secretion” value (TLR7) is reported as “significantly inhibited” and the “TLR9-mediated TNF-α or IL-6 secretion” value (TLR9) is reported as “significantly inhibited”. The “effect on back skin inflammation compared with methotrexate (MTX)” value ([1]; FIG. 5B) was “relatively weaker”, the spleen hypertrophy ([1]; FIG. 5D) was “adequately prevented” and the “thickness of the epidermis and the dermis (H&E)” value ([1]; FIG. 5F) was “therapeutic effects similar to those of the treatment group were observed”. The “expression of CD68 in skin lesions (immunohistochemistry)” value ([1]; FIG. 5H) was “effectively reduced”, the “PASI score (psoriasis area and severity index)” value ([1]; fourth day of treatment, decreased from 8.0 or higher, FIG. 5C) was “less than 4.0” and the “degree of inflammation in the back skin” value ([1]; injected daily at 50, 100 and 200 nmol/g, FIG. 5B) was “reversal of the degree of inflammation was evident”.
